Reference: the NIST ThermoML archive (doi:10.1021/je1012789)

Assay: mn = molality of the nth substance listed, in mol/kg
Conditions: 101 kPa, Liquid

O=[N+]([O-])[O-].[K+] [potassium nitrate] + O
Conditions | mass density [kg/m3] | speed of sound [m/s] | viscosity [mPa·s]
293.15 K, m1 = 0.2 | 1010.62 | 1490.7 | 0.98
293.15 K, m1 = 0.3 | 1016.69 | 1493.5 | 0.977
293.15 K, m1 = 0.4 | 1022.68 | 1497.4 | 0.973
293.15 K, m1 = 0.5 | 1028.6 | 1501 | 0.97
293.15 K, m1 = 0.6 | 1034.61 | 1504.4 | 0.967
293.15 K, m1 = 0.7 | 1040.37 | 1507.6 | 0.963
298.15 K, m1 = 0.2 | 1009.41 | 1504 | 0.871
298.15 K, m1 = 0.3 | 1015.47 | 1507 | 0.869
298.15 K, m1 = 0.4 | 1021.25 | 1510.1 | 0.867
298.15 K, m1 = 0.5 | 1027.13 | 1513.4 | 0.862
298.15 K, m1 = 0.6 | 1032.84 | 1517 | 0.862
298.15 K, m1 = 0.7 | 1038.56 | 1520 | 0.859
303.15 K, m1 = 0.2 | 1007.8 | 1515.6 | 0.778
303.15 K, m1 = 0.3 | 1013.82 | 1518.7 | 0.776
303.15 K, m1 = 0.4 | 1019.62 | 1522 | 0.775
303.15 K, m1 = 0.5 | 1025.4 | 1524.7 | 0.774
303.15 K, m1 = 0.6 | 1031.2 | 1528.4 | 0.773
303.15 K, m1 = 0.7 | 1036.79 | 1530.9 | 0.772
308.15 K, m1 = 0.2 | 1006.09 | 1526 | 0.672
308.15 K, m1 = 0.3 | 1011.97 | 1528.8 | 0.67
308.15 K, m1 = 0.4 | 1017.79 | 1531.4 | 0.669
308.15 K, m1 = 0.5 | 1023.58 | 1534.3 | 0.678
308.15 K, m1 = 0.6 | 1029.21 | 1536.8 | 0.666
308.15 K, m1 = 0.7 | 1034.87 | 1539.4 | 0.665
313.15 K, m1 = 0.2 | 1004.28 | 1534.6 | 0.595
313.15 K, m1 = 0.3 | 1009.98 | 1537.5 | 0.593
313.15 K, m1 = 0.4 | 1015.89 | 1539.7 | 0.585
313.15 K, m1 = 0.5 | 1021.56 | 1542.5 | 0.577
313.15 K, m1 = 0.6 | 1027.23 | 1544.8 | 0.569
313.15 K, m1 = 0.7 | 1032.76 | 1547.7 | 0.563
